The text below walks through data of patent US9505781B2, “Compositions comprising thienopyrimidine and thienopyridine compounds and methods of use thereof” (The Regents of the University of Michigan, priority 2013, dated 2016).

One assay relates to Hoxa9 and Meis 1. Kind of assay: qRT-PCR of MLL fusion downstream targets. The format is cell-based. The conditions noted are these: qRT-PCR in MLL-AF9 BMC, FIG. 10. An excerpt:
FIG. 10. […] B. qRT-PCR performed in MLL-AF9 BMC for Compound 175.
In general terms: Real-time PCR tracks product formation cycle by cycle.

For assay [1], the system named is MLL-AF9 transformed mouse bone marrow cells (BMC). Kind of assay: MTT cell viability assay in transformed BMC. The note with it: 72 h incubation, E2H-HLF transformed BMC as negative control, FIG. 3. The format is cell-based. In general terms: Formazan colour is commonly taken as a measure of viable cells.
Assay [2] concerns the target T1, menin-MLL-AF9 interaction (Homo sapiens, UniProt O00255).
T1 construct: performed in HEK293 cells transfected with MLL-AF9; endogenous in cells; host or cells: HEK293 cells (transfected with MLL-AF9)
T1 sequence (O00255 1-610): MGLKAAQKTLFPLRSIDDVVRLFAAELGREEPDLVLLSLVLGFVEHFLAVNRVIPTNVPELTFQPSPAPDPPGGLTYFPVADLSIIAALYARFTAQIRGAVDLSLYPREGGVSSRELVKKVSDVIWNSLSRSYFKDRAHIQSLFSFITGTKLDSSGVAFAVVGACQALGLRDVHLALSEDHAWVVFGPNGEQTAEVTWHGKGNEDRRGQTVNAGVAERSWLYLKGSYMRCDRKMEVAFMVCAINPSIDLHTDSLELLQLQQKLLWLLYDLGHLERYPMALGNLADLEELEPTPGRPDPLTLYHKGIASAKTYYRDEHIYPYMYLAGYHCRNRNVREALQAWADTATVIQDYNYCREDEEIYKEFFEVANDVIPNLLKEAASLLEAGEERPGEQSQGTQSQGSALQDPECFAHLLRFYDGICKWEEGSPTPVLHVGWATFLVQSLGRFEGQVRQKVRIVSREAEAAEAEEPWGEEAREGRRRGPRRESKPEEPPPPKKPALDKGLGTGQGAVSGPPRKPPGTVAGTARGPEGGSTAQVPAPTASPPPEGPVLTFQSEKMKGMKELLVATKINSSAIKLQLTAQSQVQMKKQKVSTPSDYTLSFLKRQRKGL
The assay can be described thus: Co-Immunoprecipitation (co-IP) in HEK293 cells transfected with MLL-AF9. The conditions noted are these: HEK293 cells transfected with MLL-AF9, FIG. 2. The format is cell-based.

A further assay has as its target T2, menin-MLL interaction (Homo sapiens, UniProt O00255).
T2 sequence (O00255 1-610): T1 sequence (O00255 1-610)
Kind of assay: biochemical.

For a further assay, the system named is MLL-AF9 leukemia. Kind of assay: In vivo efficacy in mice model of MLL-AF9 leukemia. The note with it: once daily i.p. injections of 75 mg/kg dose, FIG. 18. An excerpt:
FIG. 18. In vivo efficacy studies with compound 108 in mice model of MLL-AF9 leukemia.

For assay [3], the system named is human MLL leukemia cell lines. Kind of assay: MTT cell viability assay in human leukemia cell lines. It is filed as cell-based. The conditions noted are these: 3 days of incubation, FIG. 11.
Assay [4] concerns MLL-AF9 BMC. The assay can be described thus: Colony formation assay. It is filed as cell-based. The note with it: each round 7 days, FIG. 7. An excerpt: FIG. 7. […] Each round takes 7 days.
Assay [5] deals with MLL-AF9 BMC. The assay can be described thus: Differentiation (CD11b expression, cell morphology). It is filed as cell-based. The note with it: CD11b expression level and cell morphology, FIG. 9.
A further assay concerns MLL-AF9 transformed BMC. Kind of assay: Growth curves experiments in transformed BMC. The format is cell-based. The note with it: MLL-AF9 BMC vs Hoxa9/Meis1 transformed BMC (negative control), FIG. 5.
The test system of assay [6] is non-MLL leukemia cell lines. The assay can be described thus: Growth inhibition of non-MLL leukemia cell lines. It is filed as cell-based. The conditions noted are these: FIG. 13 B.
The test system of assay [7] is human MLL leukemia cell lines. Kind of assay: Growth inhibition of human MLL leukemia cell lines. The conditions noted are these: FIG. 13 A. The format is cell-based.

Source text for menin-MLL interaction: Compounds that inhibit the interaction decrease the fluorescence anisotropy which is being used as a read-out for compound screening and for IC50 determination.

As to `CC1(C)CN=C(N2CCN(c3ncnc4sc(CC(F)(F)F)cc34)CC2)S1` [Compound 1, 4-(4-(5,5-dimethyl-4,5-dihydrothiazol-2-yl)piperazin-1-yl)-6-(2,2,2-trifluoroethyl)thieno[2,3-d]pyrimidine], the “expression of Hoxa9 and Meis 1” value with Hoxa9 and Meis 1 is recorded as “downregulate expression of downstream targets of MLL fusion proteins”. The inhibition of proliferation result in assay [1] was “selectively inhibit proliferation of MLL leukemia cells”. Moreover, in assay [2], the “inhibition of the menin-MLL-AF9 interaction” value was “inhibition of the menin-MLL-AF9 interaction”. By IC50 is commonly meant the concentration at which inhibition is half-maximal. Higher therefore signals weaker potency. `FC(F)(F)Cc1cc2c(NC3CCN(Cc4ccccc4)CC3)ncnc2s1` [Compound 108]: the “expression of Hoxa9 and Meis 1” value in the assay on Hoxa9 and Meis 1 is listed as “downregulate expression of downstream targets of MLL fusion proteins”. Besides, the inhibition of proliferation result in [1] was “selectively inhibit proliferation of MLL leukemia cells”. This compound also registered an IC50 against menin-MLL interaction of 100 to 500 nM. In addition, in [2], the “inhibition of the menin-MLL-AF9 interaction” value was “inhibition of the menin-MLL-AF9 interaction”. Besides, in the assay with MLL-AF9 leukemia, the “survival of leukemic mice” value is “Increase in survival of leukemic mice”. In [3], the growth inhibition result is “selectively inhibit growth of human MLL leukemia cell lines”. Besides, in the assay with MLL-AF9 BMC [4], the morphology of colonies result is “changes morphology of colonies”. As to `N#Cc1cc2cc(CN3CCC(Nc4ncnc5sc(CC(F)(F)F)cc45)CC3)ccc2[nH]1` [Compound 175, 5-((4-((6-(2,2,2-trifluoroethyl)thieno[2,3-d]pyrimidin-4-yl)amino)piperidin-1-yl)methyl)-1H-indole-2-carbonitrile], in the assay with MLL-AF9 BMC [5], the differentiation result is on record as “Differentiation induced”. The “expression of Hoxa9 and Meis 1” value with Hoxa9 and Meis 1 was “downregulate expression of downstream targets of MLL fusion proteins”. Besides, on menin-MLL interaction, the IC50 was less than 100 nM. In addition, the “selectivity in growth curves” value in the assay with MLL-AF9 transformed BMC is “great selectivity of the compound towards MLL fusion protein transformed cells”. Further, the growth inhibition result was “limited effect” in assay [6] and “selectively inhibits growth of human MLL leukemia cell lines” in assay [7]. In assay [2], the “inhibition of the menin-MLL-AF9 interaction” value is given as “inhibition of the menin-MLL-AF9 interaction”.

The compound `N#Cc1cc2cc(CN3CCC(Nc4ncnc5sc(CC(F)(F)F)cc45)CC3)ccc2n1Cc1cc(OCCCCC2CC2)n[nH]1` [Compound 415] showed an IC50 at menin-MLL interaction of 100 to 500 nM. Still for that read-out and setting: the result for `N#Cc1cc2cc(CN3CCC(Nc4ncnc5sc(CC(F)(F)F)cc45)CC3)ccc2n1Cc1cc(OCCCC2CCCC2)n[nH]1` [Compound 416] reads 100 to 500 nM. On the same count and under the same terms, the result for `Cc1c(C#N)[nH]c2ccc(CN3CCC(Nc4ncnc5sc(CC(F)(F)F)cc45)CC3)cc12` [Compound 417] reads 100 to 500 nM. `N#Cc1cc2cc(CN3CCC(Nc4c(COCCC5CCCC5)cnc5sc(CC(F)(F)F)cc45)CC3)ccc2[nH]1` [Compound 418] showed an IC50 on menin-MLL interaction of 500 to 2000 nM.

Regarding `N#Cc1cc2cc(CN3CCC(Nc4c(COCCCC5CCCC5)cnc5sc(CC(F)(F)F)cc45)CC3)ccc2[nH]1` [Compound 419], the IC50 against menin-MLL interaction lay within 500 to 2000 nM. On the same count and under the same terms, the result for `N#Cc1cc2cc(CN3CCC(Nc4c(COCc5cc[nH]n5)cnc5sc(CC(F)(F)F)cc45)CC3)ccc2[nH]1` [Compound 420] reads 500 to 2000 nM.

As to `N#Cc1cc2cc(CN3CCC(Nc4c(COCC5CCCC5)cnc5sc(CC(F)(F)F)cc45)CC3)ccc2[nH]1` [Compound 421], the IC50 at menin-MLL interaction is 500 to 2000 nM.

With `Cc1c(CN2CCC(Nc3ncnc4sc(CCF)cc34)CC2)ccc2[nH]c(C#N)cc12` [Compound 423], at menin-MLL interaction, the IC50 was less than 100 nM.

On menin-MLL interaction, `N#Cc1cc2nc(CN3CCC(Nc4ncnc5sc(CC(F)(F)F)cc45)CC3)ccc2[nH]1` [Compound 424] showed an IC50 of less than 100 nM. Same read-out and setting: the result for `Cc1c(CN2CCC(Nc3ncnc4sc(CC(F)(F)F)cc34)CC2)ccc2c1cc(C#N)n2CC(O)(CO)CCCC1CC1` (stereo not shown) [Compound 425] reads less than 100 nM; that for `Cc1c(CN2CCC(Nc3ncnc4sc(CC(F)(F)F)cc34)CC2)ccc2c1cc(C#N)n2CC1CN(C)C(=O)CO1` (stereo not shown) [Compound 426], less than 100 nM. Still for that read-out and setting: under `Cc1c(CN2CCC(Nc3ncnc4sc(CC(F)(F)F)cc34)CC2)ccc2c1cc(C#N)n2CC1CCC(=O)N1` (stereo not shown) [Compound 427] stands less than 100 nM; under `Cc1c(CN2CCC(Nc3ncnc4sc(CC(F)(F)F)cc34)CC2)ccc2c1cc(C#N)n2CC1CCC(=O)NC1` (stereo not shown) [Compound 428], less than 100 nM. Same read-out and setting: the result for `Cc1c(CN2CCC(Nc3ncnc4sc(CC(F)(F)F)cc34)CC2)ccc2c1cc(C#N)n2CC1CNC(=O)C1` (stereo not shown) [Compound 430] reads less than 100 nM.
